Results from patent publication US20230381159A1 (priority 2020, published 2023).

System: SARS-CoV-2 pseudovirus (VSV-ΔG) entry into ACE2/Furin expressing host cells (Vero-E6)
Test: microbe, parasite or virus in culture
Format: cell-based, SARS-CoV-2 pseudovirus / African Green Monkey cells
Details: Severe acute respiratory syndrome-related coronavirus, Vero C1008, 20 h, read-out: IC50, inhibition of pseudovirus entry (VSV-ΔG)

O=C(Nc1ccc(-c2ccc(C(=O)Nc3cccc4cc(S(=O)(=O)O)ccc34)cc2)cc1)c1ccc([N+](=O)[O-])cc1 [Compound A2, 5-(4′-(4-Nitrobenzamido)biphenyl-4-ylcarboxamido)naphthalene-2-sulfonic acid]
IC50: 7 µM

Nc1c(/N=N/c2ccc(-c3ccc(/N=N/c4cc(S(=O)(=O)O)c5ccccc5c4N)cc3)cc2)cc(S(=O)(=O)O)c2ccccc12 [Congo red]
IC50: 16 µM
